According to ChEMBL document CHEMBL1201862, “PubChem BioAssay data set” (2004):
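Briefly, cells in 96-well plates were exposed to five compound concentrations for 48 h, and endpoints were estimated by linear interpolation. At the GI50, growth is halved.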 Calls of active or inactive are those of the source. No stated cut-off is given here; in the data, active = GI50 up to about 1.1 µM and inactive = higher.

Assays:
Assay in all cases: NCI anticancer screen, dose series, 48 h
ACHN = system: ACHN
COLO 205 = system: COLO 205
DLD-1 = system: DLD-1
DMS-114 = system: DMS-114
DMS-273 = system: DMS-273
EKVX = system: EKVX
HCC 2998 = system: HCC 2998
HCT-116 = system: HCT-116
HCT-15 = system: HCT-15
HL-60 = system: HL-60
HOP-62 = system: HOP-62
HOP-92 = system: HOP-92
HT-29 = system: HT-29
IGROV-1 = system: IGROV-1
KM-20L2 = system: KM-20L2
KM12 = system: KM12
LOX IMVI = system: LOX IMVI
LXFL 529 = system: LXFL 529
M14 = system: M14
M19-MEL = system: M19-MEL
Malme-3M = system: Malme-3M
NCI-H226 = system: NCI-H226
NCI-H23 = system: NCI-H23
NCI-H460 = system: NCI-H460
OVCAR-3 = system: OVCAR-3
OVCAR-5 = system: OVCAR-5
OVCAR-8 = system: OVCAR-8
RPMI-8226 = system: RPMI-8226
RXF 393 = system: RXF 393
SF-268 = system: SF-268
SF-295 = system: SF-295
SK-MEL-28 = system: SK-MEL-28
SK-MEL-2 = system: SK-MEL-2
SK-MEL-5 = system: SK-MEL-5
SK-OV-3 = system: SK-OV-3
SN12C = system: SN12C
SNB-75 = system: SNB-75
SR = system: SR
SW-620 = system: SW-620
TK-10 = system: TK-10
U-251 = system: U-251
UACC-257 = system: UACC-257
UACC-62 = system: UACC-62
UO-31 = system: UO-31
XF498 = system: XF498
786-0 = system: 786-0
A498 = system: A498
A549 = system: A549
CAKI-1 = system: CAKI-1
CCRF-CEM = system: CCRF-CEM
K562 = system: K562
NCI-H522 = system: NCI-H522
OVCAR-4 = system: OVCAR-4
SF-539 = system: SF-539
SNB-19 = system: SNB-19
SNB-78 = system: SNB-78

Measured: GI50

CCOC(=O)C12CCC(=O)C=C1[C@@H](C)C(=O)CC2 (some centres undefined)
inactive: ACHN > 100 µM | COLO 205 > 100 µM | DLD-1 > 100 µM | DMS-114 > 100 µM | DMS-273 > 100 µM | EKVX > 100 µM | HCC 2998 > 100 µM | HCT-116 > 100 µM | HL-60 > 100 µM | HOP-62 > 100 µM | HOP-92 93.3 µM | HT-29 > 100 µM | IGROV-1 > 100 µM | KM-20L2 > 100 µM | KM12 > 100 µM | LOX IMVI > 100 µM | LXFL 529 > 100 µM | M14 > 100 µM | M19-MEL > 100 µM | Malme-3M > 100 µM | NCI-H226 > 100 µM | NCI-H23 > 100 µM | NCI-H460 > 100 µM | OVCAR-3 > 100 µM | OVCAR-5 > 100 µM | OVCAR-8 > 100 µM | RPMI-8226 > 100 µM | RXF 393 > 100 µM | SF-268 > 100 µM | SF-295 > 100 µM | SK-MEL-28 > 100 µM | SK-MEL-2 > 100 µM | SK-MEL-5 > 100 µM | SK-OV-3 > 100 µM | SN12C > 100 µM | SNB-75 > 100 µM | SR > 100 µM | SW-620 > 100 µM | TK-10 > 100 µM | U-251 > 100 µM | UACC-257 > 100 µM | UACC-62 > 100 µM | UO-31 > 100 µM | XF498 > 100 µM
> 100 µM: HCT-15

Cc1ccc(C)c(NC(=O)C(=O)CC(=O)C2CCOC2=O)c1 (centres undefined)
inactive: 786-0 > 100 µM | A498 > 100 µM | A549 > 100 µM | ACHN > 100 µM | CAKI-1 > 100 µM | CCRF-CEM > 100 µM | COLO 205 > 100 µM | DLD-1 > 100 µM | DMS-114 > 100 µM | DMS-273 > 100 µM | EKVX > 100 µM | HCT-116 > 100 µM | HL-60 > 100 µM | HOP-62 > 100 µM | HOP-92 > 100 µM | HT-29 > 100 µM | IGROV-1 > 100 µM | K562 > 100 µM | KM-20L2 > 100 µM | KM12 > 100 µM | LOX IMVI > 100 µM | LXFL 529 > 100 µM | M14 > 100 µM | M19-MEL > 100 µM | Malme-3M > 100 µM | NCI-H226 > 100 µM | NCI-H23 > 100 µM | NCI-H460 > 100 µM | NCI-H522 > 100 µM | OVCAR-3 > 100 µM | OVCAR-4 > 100 µM | OVCAR-5 > 100 µM | OVCAR-8 > 100 µM | RPMI-8226 > 100 µM | RXF 393 > 100 µM | SF-268 > 100 µM | SF-295 > 100 µM | SF-539 > 100 µM | SK-MEL-28 28.5 µM | SK-MEL-2 > 100 µM | SK-MEL-5 > 100 µM | SK-OV-3 > 100 µM | SN12C > 100 µM | SNB-19 > 100 µM | SNB-75 67.5 µM | SNB-78 > 100 µM | SW-620 > 100 µM | TK-10 > 100 µM | U-251 > 100 µM | UACC-257 > 100 µM | UACC-62 > 100 µM | UO-31 > 100 µM | XF498 > 100 µM
> 100 µM: HCT-15
